Legend:
[1] = test system: prostatic stroma and stromal HA; assay: Prostatic histology: stromal HA (biotinylated HABP) and stromal proliferation (H&E); type: in vivo; details: rat prostate stroma; substance alone (PEGPH20 0.82 mg/kg iv, day 12; TE 25 mg/rat im days 0 and 8, day 18)
Protocol: In this example, the effect of PEGPH20 on prostatic stroma and stromal HA of normal and TE-induced prostatic hyperplasia rats was analyzed by prostatic histology, including hematoxylin and eosin staining and IHC staining. Stromal proliferation was determined by visually comparing the size of the stroma. Testosterone enanthate was administered by intramuscular injection and PEGPH20 (diluted in normal saline) and control were administered intravenously. Following treatment, the animals were sacrificed and the ventral lobes of the prostates were harvested for analysis.
Prostate tissues were fixed in 10% neutral buffered formalin in PBS for 24 hours, dehydrated with gradient ethanol, cleared with xylene, and embedded in paraffin. Paraffin block was cut to 5 μm sections. Tissue sections were dewaxed, rehydrated and processed by standard hematoxylin and eosin (H&E) staining. Histochemical localization of HA was carried out using a biotinylated-HABP probe (bHABP, Cat#400763-1A, Associates of Cape Cod, Mass.). Sections were deparaffinized in xylene, 2×5 min, hydrated in 100% ethanol, for 2×3 min, and in 95% ethanol for 1 min, then rinsed in distilled water, incubated at 37° C. for 20 min in a trypsin solution, and rinsed in PBS for 2×2 min. […]

[2] = test system: TE-induced rat prostatic hyperplasia; assay: Rat model of TE-induced prostatic hyperplasia: prostate weight; type: in vivo
Protocol: In this example, the ability of testosterone enanthate (TE) to induce prostatic hyperplasia in rat prostate was examined. Briefly, twenty-five (25) 8-week old male Sprague-Dawley rats (Harlan, USA) were dosed by intramuscular injection with 25 mg TE (Lot#80G010A, Abraxis Bioscience, Phoenix, Ariz.) per rat, once a week, on days 0, 7, 14 and 21. Five (5) out of 25 rats were sacrificed pre-TE treatment and 5 of the remaining 20 rats were sacrificed weekly. The ventral lobes of the prostates were harvested for analysis. […] Additionally, the increase in rat prostatic weight was linearly related to sustained TE exposure. The half-life of TE in the rat blood was approximately 10.5 days (Anderson R A, J Clin Endocrinol Metab., (1996) 81(3):896-901).
In this example, PEGPH20 was administered to TE-induced prostatic hyperplasic rats to evaluate its effect on prostate weight. Testosterone enanthate was administered by intramuscular injection and PEGPH20 (diluted in normal saline) was administered intravenously. Following treatment, the animals were sacrificed and the ventral lobes of the prostates were harvested for analysis. Prostate weight was measured using an electronic scale.
Testosterone enanthate was administered by intramuscular injection and PEGPH20 (diluted in normal saline) was administered intravenously. Following treatment, the animals were sacrificed and the ventral lobes of the prostates were harvested for analysis. Prostate weight was measured using an electronic scale.
In this example, the time-dependence of treatment of rat BPH with PEGPH20 was evaluated by administering PEGPH20 at various time points. Testosterone enanthate was administered by intramuscular injection and PEGPH20 (diluted in normal saline) was administered intravenously. Following treatment, the animals were sacrificed and the ventral lobes of the prostates were harvested for analysis. Prostate weight was measured using an electronic scale.
In this example, the effect of treatment with PEGPH20 was compared to treatment with finasteride using the rat TE-prostatic hyperplasia model. Testosterone enanthate was administered by intramuscular injection, PEGPH20 (diluted in normal saline) was administered intravenously and finasteride was administered intraperitoneally. On day 21 the animals were sacrificed and the ventral lobes of the prostates were harvested for analysis. Prostate weight was measured using an electronic scale.
In this example, the effect of combination therapy with PEGPH20 and finasteride was evaluated. PEGPH20 was administered at a dose of either 0.82 mg/kg (low dose) or 2 mg/kg (high dose). Testosterone enanthate was administered by intramuscular injection, PEGPH20 (diluted in normal saline) was administered intravenously and finasteride was administered intraperitoneally. On day 21 the animals were sacrificed and the ventral lobes of the prostates were harvested for analysis. Prostate weight was measured using an electronic scale.
Percent (%) inhibition was determined according to the formula: ((Control-treated)/Control)×100. […] The prostatic water content of each group was calculated from the wet weight and the dry weight and found to be the same for all groups (˜80%). Therefore, the change in prostate weight cannot be attributed to decreased tissue water.
Testosterone enanthate was administered by intramuscular injection, PEGPH20 was administered intravenously or by intra-prostatic injection and DepoGel vehicle or DepoPH20 were administered by intra-prostatic injection. On day 21 the animals were sacrificed and the ventral lobes of the prostates were harvested for analysis. Prostate weight was measured using an electronic scale.
(§1) In this study, 25 mg TE was administered […] to each rat on days 1 and 7. 50 μL of 4700 U/mL (0.18 mg/mL) MVL-PH20F40 and 50 μL MVL-Vehicle were administered intraprostatically on day 7. […]

[3] = test system: prostate stromal cells; assay: TUNEL assay, apoptosis of stromal cells; type: in vivo, rat
Protocol: In this example, the ability of PEGPH20 to cause apoptosis of stromal cells was analyzed. In situ detection of cell apoptosis by TUNEL assay was based on a reaction for in situ terminal deoxynucleotidyl-transferase (TdT)-mediated biotinylated UTP nick-end labelling (TUNEL). This was essentially performed by using the FragEL DNA (Cat# QIA39-1EA, Calbiochem, Gibbstown, N.J.) according to the manufacturer's directions. In brief, de-paraffinized tissue sections were treated with proteinase K (0.02 mg/mL, Cat#25530, Invitrogen, Carlsbad, Calif.). The slides were then washed in Tris buffered saline (TBS), and endogenous peroxidase was blocked for 5 min in 3% H2O2 diluted in methanol. After washes in TBS, sections were treated with 1×TdT equilibration buffer at room temperature for 30 min and subsequently incubated with TdT labelling reaction mix ([…]) for 1.5 h at 37° C. The slides were rinsed in TBS and mounted using Fluorein-FragEL mounting media, then sealed with nail polish. The number of TUNEL-positive cells was counted on each section at ×200 under a light microscope.
as §1

[4] = cited from earlier work

SMILES	Effect on HA [1]	Effect on Stroma [1]	increase in prostate size ([2]; 25 mg TE per rat im once a week for a month) [fold]	Prostatic Weight (g) Mean ± SD ([2]; TE 25 mg/rat days 0, 7, 14, sacrificed day 21) [g]	Prostatic Weight Mean ± SD ([2]; TE 3 wks (25 mg/rat days 0, 7, 14), day 21) [g]	increase in prostate weight post TE exposure ([2]; day 7, TE 25 mg/rat im) [%]	increase in prostate weight post TE exposure ([2]; day 18, TE 25 mg/rat im days 0, 7 and 14) [%]	Prostatic Weight (g) Mean ± SD ([2]; group 1: 3 wk TE (25 mg/rat days 0, 7, 14), day 21) [g]	Prostatic Weight (g) Mean ± SD ([2]; group 1: TE 25 mg/rat days 0, 7, sacrificed day 28) [g]	Prostatic Weight (g) Mean ± SD ([2]; group 2: TE 25 mg/rat days 0, 7, 14, 21, sacrificed day 28) [g]	Prostatic Weight (g) Mean ± SD ([2]; group 3: TE 25 mg/rat days 0, 7, sacrificed day 21) [g]	Apoptotic cells/section Mean ± SD ([3]; TE 7 d) [cells/section]	Apoptotic cells/section Mean ± SD ([3]; TE 18 d) [cells/section]	half-life of TE in the rat blood [4]	inhibition of prostate growth ([2]; TE days 0, 7, PEGPH20 0.82 mg/kg iv QOD days 7-20 or finasteride 25 mg/kg ip daily days 7-20, day 21, vs TE alone P<0.01)	reduction in prostate size relative to vehicle control ([2]; TE days 1 and 7, finasteride 2.5 mg/kg ip daily starting on day 7) [%]	% Inhibit ([2]; group 4: 3 wk TE, finasteride (25 mg/kg ip daily, 2 wk)) [%]	Prostatic Weight (g) Mean ± SD ([2]; group 4: 3 wk TE, finasteride (25 mg/kg ip daily, 2 wk), day 21, P 0.007) [g]
CCCCCCC(=O)O[C@H]1CC[C@H]2[C@@H]3CCC4=CC(=O)CC[C@]4(C)[C@H]3CC[C@]12C [TE, testosterone enanthate]	Increased	Increased proliferation	~3	1.54 ± 0.07	1.64 ± 0.12	18.9	85.7	1.33 ± 0.23	1.49 ± 0.47	1.76 ± 0.18	1.57 ± 0.09	4.6 ± 2.51	1.75 ± 1.71	approximately 10.5 days	–	–	–	–
CC(C)(C)NC(=O)[C@H]1CC[C@H]2[C@@H]3CC[C@H]4NC(=O)C=C[C@]4(C)[C@H]3CC[C@]12C [finasteride, (5α,17β)-N -(1,1-dimethethylethy)-3-oxo-4-azaandrost-1-ene-17-carboxamide]	–	–	–	–	–	–	–	–	–	–	–	–	–	–	approximately 37%	18.7	25.2	1.00 ± 0.19
